According to patent publication US8337809B2, “Charge-assembled capsules for phototherapy” (William Marsh Rice University, priority 2006, dated 2012):

What was measured:
[1] = test system: fibroblasts (rat maxillary incisor pulp cells (RPC-C2A)); assay: Viability assessment of cells exposed to ICG-NACs (Live/Dead viability assay); type: cell-based
Experimental: (§1) Washed ICG-NACs (0.5 mL, ˜1×10^7 particles/mL, ˜1×10^9 ICG molecules/particles, 0.007 wt % ICG of suspension) were suspended in PBS solution and placed in the wells of a 24 well polystyrene culture dish. Control samples were a 0.007 wt % PBS solution of ICG and PBS solution. Containing 0.5 mL of aqueous suspension or solution, each well was irradiated with a continuous-wave near-infrared diode laser (Coherent FAP-System, 54 W, λ=808 nm, irradiance (Io)) 155 W/cm^2) for various time intervals. The laser beam impinged on the sample with a 6.66 mm diameter. During irradiation, the sample temperature was monitored with a K-type thermocouple (bead diameter) 0.003 in., Omega Engineering) located 1 mm outside the laser spot and recorded using LabVIEW data acquisition software (National Instruments, Austin, Tex.). For the SEM study, 5 identical batches were prepared and irradiated for various times. Each sample was then washed twice with Nanopure water and dried at room temperature for SEM imaging. Viability Assessment of Cells Exposed to ICG-NACs. […] Cell survival was quantified using the Live/Dead viability assay (Molecular Probes). Dead cells were differentiated from live cells through fluorescence microscopy, as the former emitted red fluorescence (from the ethidium homodimer-1 dye precursor) and the latter emitted green fluorescence (from the calcein acetoxymethyl ester dye precursor). […]

[2] = cited from earlier work
[3] = ICG concentration 0.001 mg/ml at 42° C.; cited from earlier work
[4] = test system: animal subjects; details: cited from earlier work
[5] = ICG leakage measurements / thermal degradation in PBS; type: physicochemical; details: 37° C.
Experimental: The synthesis of ICG-NACs with ICG/PAH=0.04 was scaled up by 10 times. After washing with PBS solution, the precipitate was dispersed in PBS solution (2.6 mL) and split into 0.25 mL aliquots kept under constant shaking in the dark at either 23 or 37° C. Because of the long time scale of this study and the sensitivity of ICG to degradation in water, the suspension fluid was not analyzed for released ICG. Instead, the ICG contained within the ICG-NACs was quantified by inducing the disassembly of the ICG-NACs and immediately measuring the ICG concentration. Specifically, after a given aging time, each aliquot was centrifuged for 30 min and the concentrated precipitate suspension ([…]) was combined with 2.5 mL HNO3 solution (2 wt %). The resulting clear solution was then analyzed through UV-vis spectroscopy. As control samples, fresh ICG solution in PBS was prepared with a concentration close to that of the disassembled NAC solution (˜0.04 mg/mL) and incubated at 23 and 37° C. The samples were kept in the dark during aging.
The ICG content of ICG-NACs (ICG/amine ratio=0.04) was quantified as a function of time by dis-assembling the capsules and measuring the absorbance of free ICG concentration at 780 nm (FIG. 9). For ICG-NACs at 23° C., more than 96% of ICG was retained. […]

[6] = Laser-induced photothermal experiments (808 nm NIR diode laser)
Experimental: as §1

Structure (SMILES): CC1(C)C(/C=C/C=C/C=C/C=C2\N(CCCCS(=O)(=O)O)c3ccc4ccccc4c3C2(C)C)=[N+](CCCCS(=O)(=O)[O-])c2ccc3ccccc3c21 [ICG, indocyanine green]
- toxicity to fibroblast cells [1]: non-toxic
- half-life of rapid clearance from the circulatory system ([2]; initial fast phase): 3 to 4 min
- half-life of much slower clearance rate ([2]; second, slower phase): ≥ 1 h
- published half-life of ICG [3]: ~10 h
- semilethal dose LD50 [4]: 50 to 80 mg/kg
- ICG lost at the end of 8 hr ([5]; PBS, dark, capsules ICG/amine ratio=0.04, free ICG ~0.04 mg/mL): ~35%
- half-life ([5]; ICG solution in PBS, free ICG in PBS, calculated): 19 h
- photothermal heating response ([6]; constant 808 nm irradiation, compared with ICG-NACs): very similar heating curve
- irradiation/cooling cycles in which the target temperature was reached ([6]; irradiated to ~51-54° C. (ICG-NACs 55° C.), cooled to 30° C., repeated, photodegradation stability): 4 cycles
